According to a melting point compilation (Tetko et al.; mined from patent text by program, amines drawn as free bases though some values may be those of a salt):

Row | melting point [°C] | Compound
1 | 117 to 119 | CCOC(=O)CN(NC(=O)OC(C)(C)C)C(=O)OCc1ccccc1
2 | 156 to 158 | CSc1nn(-c2c(Cl)cc(C(F)(F)F)cc2Cl)c2ncnc(-c3ccccc3Cl)c12
3 | 120 to 122 | COC(=O)c1cc(C(F)(F)F)[nH]c1-c1ccc(Cl)cc1
4 | 55 | OCCc1ccc(OCc2ccc(Cl)cc2Cl)cc1
5 | > 300 | O=C(O)CC(=O)NCc1cc(Br)cc2[nH]c(=O)c(=O)[nH]c12
6 | 165 to 175 | CN1CCN(C(=O)c2ccc(Nc3cc(NC(=O)Nc4c(Cl)cc(Cl)cc4Cl)ncn3)cc2)CC1
7 | 120 to 122 | COc1cc(NC(=O)c2ccc(Cl)cc2)c(C(N)=O)cc1OC
8 | 203 to 204 | CS(=O)(=O)c1ccc(-c2oc3ccccc3c(=O)c2-c2ccccn2)cc1
9 | 65 to 66 | CCOC(=O)c1cn(C)nc1Cl
10 | 107 to 109 | COc1ccc(-c2ccc(NC(=O)OC(C)(C)C)c([N+](=O)[O-])c2)cc1
11 | 130 to 131 | CCOc1ccc(S(=O)(=O)N(CC(=O)NN=C2C(=O)Nc3ccccc32)c2ccc(C)cc2)cc1
12 | 236 | CS(=O)(=O)c1ccc(-c2oc(C(=O)O)cc(=O)c2-c2ccc(Cl)cc2)cc1
13 | 219 to 220 | CCN1c2ncc(Cc3cccc(O)c3)cc2C(=O)N(C)c2ccc(Cl)nc21
14 | 238 to 239 | O=C1c2cc(Cl)ccc2N(N2CCOCC2)C2=NCCN12
15 | 100 | CC(=O)NCCOC(=O)C(Oc1ccc(F)c(C(F)(F)F)c1)c1ccc(F)cc1 (stereo unspecified)
16 | 109 to 111 | C#Cc1ccc(Nc2c(C(=O)c3ccccn3)ccc(F)c2F)c(F)c1
17 | 119 to 120 | O=C(O)C1=CCN(c2ncccc2F)CC1
18 | 102 to 104 | Cn1ncc(SCc2ccccc2)c(Cl)c1=O
19 | 212 to 213 | O=C(NC1CCN(CCCOc2ccc3c4c(c(=O)oc3c2)CCC4)CC1)c1ccc([N+](=O)[O-])cc1
20 | 219 to 220 | Cc1cc2c(cc1Br)N(C1CC1)C=NS2(=O)=O
21 | 219 to 220 | CC(=O)Nc1ccc(Nc2nccc(-c3sc(C)nc3C)n2)cc1
22 | > 250 | Nc1c(N=O)c(=O)n(CC2CCCCCC2)c(=O)n1CC1CCCCCC1
23 | 98 to 102 | CNCC(O)C1=CSC2C=CC=CC12 (stereo unspecified)
24 | 123 to 124 | CC(C)(C)[Si](C)(C)CCCSCCNC(=O)n1cc(F)c(=O)[nH]c1=O

Row | melting point [°C] | Compound
25 | 79 | COC(=O)Cc1ccc(OCc2ccc3ccccc3n2)c(Cl)c1
26 | 227 to 229 | Cc1c(NC(=O)c2ccc(-c3ccc(Cl)cc3)cc2)ccc2cc(CN3CCCC3)cnc12
27 | 127 to 128 | CCCc1nc2c(N)nc3cccnc3c2n1CCOCCON=C(C)C
28 | 73 to 74 | CCOC(=O)c1cnc2sc3c(n12)CCCCC3
29 | 118 to 119 | OCCOc1ccc2ccn(C3CCN(CCc4ccc(F)cc4)CC3)c2c1
30 | 184 to 185 | CN1C(=O)CCc2cccc(N3CCN(CCCCOc4ccc5c(n4)NC(=O)CCC5)CC3)c21
31 | 287 to 289 | CC1Cc2c(N3CCN(CC(F)(F)F)CC3)c(F)cc3c(=O)c(C(=O)O)cn1c23 (stereo unspecified)
32 | 268 to 269 | O=C(O)C1=Cc2cc(C(=O)c3ccc(Cl)cc3)ccc2OC1C(F)(F)F (stereo unspecified)
33 | 99 to 100 | CCOCc1nc2c(N)nc3ccccc3c2n1C[C@@H](O)CO
34 | 103 | CNCC(=O)NC(=O)OC(C)(C)C
35 | 112 to 113 | OC(CS)(Cn1cncn1)c1ccc(F)cc1F (stereo unspecified)
36 | 168 to 170 | CCCS(=O)(=O)c1cccnc1S(=O)(=O)NC(=O)Nc1nc(OC)cc(OC)n1
37 | 121 to 123 | CC(O)(CC(=O)O)c1ccc(-c2ccc(F)cc2F)cc1 (stereo unspecified)
38 | 189 to 190 | CC1(CNC(=O)CC2CN=C(c3cc4cc(Oc5ccc(S(C)(=O)=O)nc5)cc(OC5CCOCC5)c4[nH]3)S2)COC1 (stereo unspecified)
39 | 255 to 256 | O=C(O)c1cccc(-c2nc(-c3ccc(F)c(F)c3)cs2)c1
40 | 272 to 275 | CCn1cc(C(=O)O)c(=O)c2ccc(N3CCNCC3)cc21
41 | 156 | O=C1CCC(c2ccccc2)(c2ccccc2)C2CN(C(Cc3ccccc3)=NCc3cccc(F)c3)CC12 (stereo unspecified)
42 | 71 to 72 | COc1ccc(C(=O)c2c(F)cccc2F)c(O)c1
43 | 163 to 164 | CC(=O)Nc1c(C#N)cnn1-c1c(Cl)cc(Cl)cc1Cl
44 | 90 to 91 | COc1ccccc1S(=O)(=O)OC(Br)C(=O)c1ccccc1 (stereo unspecified)
45 | 187 to 189 | O=C(O)CC(NC(=O)OCC1c2ccccc2-c2ccccc21)C(F)(F)F (stereo unspecified)
46 | 139 to 141 | O=C(Nc1ccccc1N1CCc2ccccc21)c1ccccc1F
47 | 78 to 83 | O=C(N[C@@H](Cc1ccccc1)C(=O)Nc1nncs1)OCc1ccccc1
48 | 144 to 146 | CCc1nn2c(-c3cccc(C(F)(F)F)c3)ccnc2c1C#N

Row | melting point [°C] | Compound
49 | 138 to 140 | COC(=O)C[C@H]1COS(=O)(=O)N1C(=O)OCC1c2ccccc2-c2ccccc21
50 | 161 to 163 | Nc1cccc(-c2nc(-c3cccnc3)no2)c1
51 | 185 | CC(C)(C)c1cc([PH](=O)c2cc(C(C)(C)C)cc(C(C)(C)C)c2)cc(C(C)(C)C)c1
52 | > 240 | Cc1cc(C(=O)O)cc2c3ccccc3n(Cc3ccccc3)c12
53 | 152 to 156 | CC(C)(C)n1ncc(SCc2ccc(Oc3ccc(C(F)(F)F)cc3)cc2)c(Cl)c1=O
54 | 125 to 127 | O=S1(=O)NN=Cc2ccsc21
55 | 53 to 60 | CC(C)NCC(O)COc1cccc(-c2oc3ccccc3c2C(=O)c2ccc(Cl)cc2)c1 (stereo unspecified)
56 | 84 | Cc1cc(F)ccc1-c1ccc(S(=O)(=O)N2c3ccccc3CC2C(=O)NCCOc2ccc(C(=O)OC(C)(C)C)cc2)cc1 (stereo unspecified)
57 | 194 to 195 | COc1cc(OC)cc(-c2nc(CCOc3ccc(C[C@H](OC)C(=O)O)c4sccc34)c(C)o2)c1
58 | 198 to 200 | COc1ccc(-c2c(Cl)c(Cn3cncn3)nc3sc4c(c23)CCSC4)cc1
59 | 78 to 79 | Cc1sc(-c2ccccc2)nc1COc1ccc(CCl)cn1
60 | 133 to 135 | N#CCN1CCN(c2cccccc2=O)CC1
61 | 63 to 65 | CCOC(=O)CC(NC(=O)c1cccc(Cl)c1)C(=O)c1ccsc1 (stereo unspecified)
62 | 201 to 202 | CCOC(=O)c1sc(Oc2ccc(NS(=O)(=O)c3ccc(C)cc3)cc2)c2c1CCc1cnn(C)c1-2
63 | 128 to 129 | CN1CCC(Nc2ccccc2C(=O)c2ccccc2Cl)CC1
64 | 196 to 198 | COc1ccc(OC)c(S(=O)(=O)n2c(COC(C)C(=O)O)cc3cc(Cl)ccc32)c1 (stereo unspecified)
65 | 166 to 168 | CC(C)(C)OC(=O)Nc1ccc(Nc2n[nH]c(N)c2C#N)cc1
66 | 66 to 68 | CCN(CC)CCOc1ccc2cc3ccc(OCCN(CC)CC)c(Br)c3nc2c1Br
67 | 118 to 123 | Cc1c(-c2ccc(O)cc2)n(Cc2ccc(C#CCN3CCCCC3)cc2)c2ccc(O)cc12
68 | 140 to 141 | CCS(=O)(=O)c1cc(C(=O)NCC2CCCN2CC2CCCC2)c(OC)cc1N (stereo unspecified)
69 | 104 to 106 | O=Cc1cccn2c(Br)cnc12
70 | 80 to 81 | COC(=O)Cc1cc(C)ccc1OCc1ccc(OCc2nc(-c3ccccc3)oc2C)cc1
71 | 59 to 62 | COc1ccc(CCCN(Cc2ccccc2)C[C@@H](O)c2ccc(OCc3ccccc3)c(OCc3ccccc3)c2)cc1
72 | 241 to 244 | O=[N+]([O-])c1cnn2c(-c3ccncc3)ccnc12

Row | melting point [°C] | Compound
73 | 88 to 93 | COc1cc(C(=O)NS(=O)(=O)c2ccccc2C)ccc1Cc1cccc2ccc(CCCCC(=O)N(C)C)cc12
74 | 162 to 163 | O=C(O)Cc1ccc(C(=O)c2ccc(Cl)cc2)n1Cc1ccccc1
75 | 212 to 214 | CC(C)(C)n1cc(-c2ccc(-c3ccccc3)cc2)c2c(N)ncnc21
76 | 204 to 205 | Cc1nnc(-c2ccc3occ(-c4ccc(S(C)(=O)=O)c(Cl)c4)c3c2)o1
77 | 63 to 65 | CCCc1c(OCCCSc2cccc(CC(=O)OC)c2F)ccc(C(C)=O)c1O
78 | 140 to 141 | COC(=O)c1ccccc1S(=O)(=O)NC(=O)Nc1nc(C)cc(CO)n1
79 | 94 to 95 | CCOC(=O)C(C(=O)OCC)c1c(Br)cnc2c([N+](=O)[O-])cccc12
80 | 62 to 64 | CCOC(=O)c1csc(C2OC(CO)C(O)C2O)n1 (stereo unspecified)
81 | 148 to 150 | CCCC(=O)c1cnc2c(CO)cccc2c1Nc1ccccc1C
82 | 215 to 229 | COc1cc2ccc(C(=O)CCC(=O)O)cc2cc1OC
83 | 194 to 202 | O=C1CCc2c(ccc3ccc(O)cc23)O1
84 | 181 to 182 | COC(=O)C1=C(C)Nc2ccccc2NC1c1cccc(Cl)c1Cl (stereo unspecified)
85 | 92 to 93 | OCCCCCCCCCCCc1ccc(O)c(O)c1
86 | 91 | CC(C)(C)OC(=O)N1CC2CC1C(=O)S2 (stereo unspecified)
87 | 162 to 164 | CCOC(=O)c1ccc(OCCOc2ccc(-c3onc(SC)c3C#N)cc2)cc1
88 | 140 | O=C1c2ccccc2C(=O)c2c1cccc2N1CCN(CCO)CC1
89 | 189 to 190 | CC(/C=C/C(Br)=C(/C)c1ccc2c(c1)C(C)(C)CCC2(C)C)=C\C(=O)O
90 | 113 | CSc1nc(-c2ccc(C(F)(F)F)cc2)c2cc(C)sc2n1
91 | 167 to 170 | CC1(C)CC(=O)c2cc(C#N)c(N3CCN(c4ccccc4)CC3)nc2C1
92 | 100 to 102 | CCC(Oc1ccc(Cl)c(C)c1)C(=O)NCc1ccco1 (stereo unspecified)
93 | 150 to 152 | OCCN1CCN(C2=Nc3cc(Br)ccc3Oc3cscc32)CC1
94 | 99.3 to 102 | CCC(Br)C(=O)NOCc1ccccc1 (stereo unspecified)

Row | Compound | melting point [°C]
95 | CN(C)C(=O)Oc1ccc(CCl)cc1 | 68
96 | NC1(Cl)C=CN=C(Cl)N1 (stereo unspecified) | 55 to 56
97 | CC1(C)C(C=C(F)C(=O)O)C1C(=O)OCc1ccccc1 (stereo unspecified) | 88
98 | COc1ccc(C(CN(C)C)c2nnc3n2-c2ccc(Cl)cc2C(c2ccccc2)=NC3)cc1 (stereo unspecified) | 138 to 142
99 | CCCCCc1cc(O)c(C2=C(CO)CCC(C)C2)c(O)c1 (stereo unspecified) | 109 to 111
100 | N#CC1CN1C(=O)CN1C(=O)c2ccccc2C1=O (stereo unspecified) | 126 to 128
101 | O=C(C(Cl)Cl)N1CCC2(CC1)OCCO2 | 102
